Source: article PMC6701825, “Antiproliferative and Antimigratory Effects of a Novel YAP–TEAD Interaction Inhibitor Identified Using in Silico Molecular Docking” (Journal of Medicinal Chemistry, 2019)

Tests used:
CTGF promoter = assay: CTGF-luciferase reporter in RaVSMCs; format: cell-based, rat
Excerpt: Activation of TEAD transcription factors in response to YAP binding induces the expression of many genes that encode proteins known to be involved in promoting cell proliferation and migration (see Supplement Figure 14). The best characterized TEAD target genes associated with the promotion of cell proliferation and migration are CCN1 and CTGF.[39],[59],[60] […] We therefore tested whether CPD3 inhibited the promoter activity of known TEAD target genes, CCN1 and CTGF, in the HeLa transformed cell line and primary rat VSMCs (RaVSMCs). Cells were transfected with plasmids expressing bioluminescent firefly luciferase reporter genes under the control of either the CCN1 or CTGF promoter regions. […] As both CCN1 and CTGF are classical TEAD target genes, this is consistent with the inhibition of TEAD activity by CPD3.
Figure 9 Compound 3.1 inhibits TEAD target gene expression, cell proliferation, and cell migration in RaVSMCs. […] Total RNA was analyzed for mRNA levels of TEAD-target genes (D) or constitutive housekeeping genes (E) by qRT-PCR. […] Total cell lysates were analyzed for CCN1 protein expression by Western blotting (F). […] RaVSMCs (I) or HuVSMC (J) were treated with indicated concentrations of compound 3.1 and cell migration quantified using IncuCyte real time migration assay (n = 4). […]

[1] = tested on: TEAD-dependent transcriptional activity; assay: 8xTEAD secreted nanoluciferase (TEAD-NLUC) reporter assay in HeLa cells; format: cell-based, human; conditions: HeLa TEAD-NLUC, 6 h
Excerpt: The shortlisted sets of 16 compounds were first assayed for their ability to inhibit TEAD-dependent transcriptional activity in HeLa cells that had been transduced with a recombinant lentiviral vector expressing secreted bioluminescent nanoluciferase (NLUC) reporter gene enzyme, which is expressed under the control of a promoter region containing eight TEAD DNA-binding elements (TEAD-NLUC).
Compounds were initially screened for ability to inhibit TEAD-dependent transcriptional activity in HeLa cells transduced with a lentiviral vector expressing secreted nanoluciferase under the control of multimerized TEAD consensus elements (5′-[…]-3′). 8xTEAD NanoLuc was generated by cloning the 8xTEAD promoter from the 8xTEAD-Luc plasmid (Addgene #34615) into the pENTR gateway entry vector (Promega). This was then recombined into pLNT-sec-Nluc-2A-eGFP destination vector (supplied by Tristan McKay; University of Manchester). Lentiviruses were generated by Viafect-mediated co-transfection of pLNT8x-TEAD-sec-Nluc-2A-eGFP, Δ8.9, and VSV-G vectors into HEK293T cells (ATCC), and lentiviral-containing culture supernatants were used to infect HeLa cells in the presence of 6 μg/mL polybrene. For compound screening, 8xTEAD NanoLuc-transduced HeLa cells were seeded at 2 × 10^4 cells/well in 96-well plates. After 48 h, the cells were washed in PBS and incubated with test compounds at the indicated concentrations for 2 h. The cells were washed again in PBS and incubated with the compound for a further 4 h. Conditioned culture medium (50 μL) was assayed for secreted nanoluciferase activity using NanoGlo activity assays kit (Promega) and a Glomax Discover luminometer.

HeLa cells = assay: EdU proliferation assay in HeLa cells; format: cell-based, human; conditions: for cell proliferation (EdU incorporation): 18 h then 6 h 10 μM EdU
Protocol: Cell proliferation was measured using the Click-iT EdU 488 assay (Sigma-Aldrich). Briefly, the cells were treated with indicated concentrations of compounds for 24 h with the last 4 h being in the presence of 10 μM EdU. The cells were fixed in 4% formaldehyde and stained for EdU incorporation, following the kit’s standard protocol. The cells were counterstained with Hoechst 33342 nucleic acid for 20 min. Fluorescent images of at least three fields of view per well were counted using ImageJ software. Real-time analysis of cell migration was performed using an IncuCyte ZOOM live cell imaging system (Essen BioScience) according to the manufacturer’s instructions. Briefly, the cells were seeded (1.2 × 10^4 cells/well for HeLa cells, 1.5 × 10^4 cells/well for RaVSMCs, and 1 × 10^4 cells/well) into ImageLock 96-well plates. After 36 h, the cells were pretreated overnight with indicated concentrations of compounds. The wells were scratched using a WoundMaker tool, and the media were replaced containing test compounds. Phase contrast images of cell migration into the wounded area were acquired hourly for 24 h. Relative wound confluence was calculated using the Cell Migration Image analysis module of the IncuCyte ZOOM software.

| Compound | IC50 (CTGF promoter; Rattus norvegicus, 6 hr, read-out: IC50, CTGF-LUC (as printed in Figure 9C)) [µM] | concentration at which TEAD-dependent NLUC secretion was significantly inhibited [1] [µM] | doses at which EdU incorporation was significantly inhibited (HeLa cells) | cell proliferation (EdU incorporation) (HeLa cells) | CTGF-luciferase reporter gene activity (CTGF promoter; 6 h, indicated concentrations) | IC50 ([1]; Homo sapiens, HeLa, read-out: IC50, TEAD-dependent NLUC secretion) [µM] |
| --- | --- | --- | --- | --- | --- | --- |
| Cc1ccc2c(c1)c1c3n2CCNC3CCC1 (centres unmarked) [CPD3.1] | 58 | 20 | above 40 μM | dose-dependently inhibited HeLa cell proliferation |  |  |
| Cc1ccc2c(c1)c1c3n2CCN(CC(O)CN2CCN(C(=O)c4ccco4)CC2)C3CCC1 (centres unmarked) [CPD3] |  | 60 |  | dose-dependently inhibited cell proliferation | strong and significant dose-dependent inhibition | > 110 |
